# Reference: ChEMBL document CHEMBL4715724, “Novel 5-substituted-2-anilinoquinolines with 3-(morpholino or 4-methylpiperazin-1-yl)propoxy moiety as broad spectrum antiproliferative agents: Synthesis, cell based assays and kinase screening” (Bioorg Med Chem Lett, 2016)
# Legend:
# [1] = system: COLO 205; experiment: Growth inhibition of human COLO 205 cells assessed as growth percentage at 10 uM measured after 48 hrs by sulforhodamine B assay relative to control; format: functional; conditions: read-out: Activity
# [2] = system: CCRF-CEM; experiment: cells; format: functional; conditions: Homo sapiens, time 48 hrs
# Description: Growth inhibition of human CCRF-CEM cells incubated for 48 hrs by sulforhodamine B assay
# [3] = system: NCI-H322M; experiment: cells; format: functional; conditions: Homo sapiens, time 48 hrs
# Description: Growth inhibition of human NCI-H322M cells incubated for 48 hrs by sulforhodamine B assay
# [4] = system: KM12; experiment: cells; format: functional; conditions: Homo sapiens, time 48 hrs
# Description: Growth inhibition of human KM12 cells incubated for 48 hrs by sulforhodamine B assay
# [5] = system: Panel CNS (Carcinoma cell lines); experiment: cells; format: functional; conditions: Homo sapiens, time 48 hrs; for CC50: read-out: LC50 (the source's name)
# Description: Growth inhibition of human Panel CNS (Carcinoma cell lines) incubated for 48 hrs by sulforhodamine B assay
# [6] = system: K562; experiment: cells; format: functional; conditions: Homo sapiens, time 48 hrs
# Description: Growth inhibition of human K562 cells incubated for 48 hrs by sulforhodamine B assay
# [7] = system: OVCAR-8; experiment: cells; format: functional; conditions: Homo sapiens, time 48 hrs
# Description: Growth inhibition of human OVCAR-8 cells incubated for 48 hrs by sulforhodamine B assay
# [8] = system: PC-3; experiment: cells; format: functional; conditions: Homo sapiens, time 48 hrs
# Description: Growth inhibition of human PC-3 cells incubated for 48 hrs by sulforhodamine B assay
# [9] = system: RXF 393; experiment: cells; format: functional; conditions: Homo sapiens, time 48 hrs
# Description: Growth inhibition of human RXF 393 cells incubated for 48 hrs by sulforhodamine B assay
# [10] = system: Panel ovarian (Carcinoma cell lines); experiment: cells; format: functional; conditions: Homo sapiens, time 48 hrs
# Description: Growth inhibition of human Panel ovarian (Carcinoma cell lines) incubated for 48 hrs by sulforhodamine B assay
# [11] = system: Hs-578T; experiment: cells; format: functional; conditions: Homo sapiens, time 48 hrs
# Description: Growth inhibition of human Hs-578T cells incubated for 48 hrs by sulforhodamine B assay
# [12] = system: Panel breast (Carcinoma cell lines); experiment: cells; format: functional; conditions: Homo sapiens, time 48 hrs; for CC50: read-out: LC50 (the source's name)
# Description: Growth inhibition of human Panel breast (Carcinoma cell lines) incubated for 48 hrs by sulforhodamine B assay
# [13] = cells; format: functional; conditions: Homo sapiens, Non-small cell lung cancer cell line; time 48 hrs
# Description: Growth inhibition of human Non-small cell lung cancer cell line incubated for 48 hrs by sulforhodamine B assay
# [14] = system: OVCAR-3; experiment: cells; format: functional; conditions: Homo sapiens, time 48 hrs
# Description: Growth inhibition of human OVCAR-3 cells incubated for 48 hrs by sulforhodamine B assay
# [15] = system: HOP-62; experiment: cells; format: functional; conditions: Homo sapiens, time 48 hrs
# Description: Growth inhibition of human HOP-62 cells incubated for 48 hrs by sulforhodamine B assay
# [16] = system: Panel prostate (Carcinoma cell lines); experiment: cells; format: functional; conditions: Homo sapiens, time 48 hrs
# Description: Growth inhibition of human Panel prostate (Carcinoma cell lines) incubated for 48 hrs by sulforhodamine B assay
# [17] = system: NCI-H23; experiment: cells; format: functional; conditions: Homo sapiens, time 48 hrs
# Description: Growth inhibition of human NCI-H23 cells incubated for 48 hrs by sulforhodamine B assay
# [18] = system: NCI-H460; experiment: cells; format: functional; conditions: Homo sapiens, time 48 hrs
# Description: Growth inhibition of human NCI-H460 cells incubated for 48 hrs by sulforhodamine B assay
# [19] = system: Panel melanoma (Carcinoma cell lines); experiment: cells; format: functional; conditions: Homo sapiens, time 48 hrs
# Description: Growth inhibition of human Panel melanoma (Carcinoma cell lines) incubated for 48 hrs by sulforhodamine B assay
# [20] = system: Panel leukemia (Carcinoma cell lines); experiment: cells; format: functional; conditions: Homo sapiens, time 48 hrs
# Description: Growth inhibition of human Panel leukemia (Carcinoma cell lines) incubated for 48 hrs by sulforhodamine B assay
# [21] = system: 786-0; experiment: Growth inhibition of human 786-0 cells assessed as growth percentage at 10 uM measured after 48 hrs by sulforhodamine B assay relative to control; format: functional; conditions: read-out: Activity
# [22] = system: SR; experiment: cells; format: functional; conditions: Homo sapiens, time 48 hrs
# Description: Growth inhibition of human SR cells incubated for 48 hrs by sulforhodamine B assay
# [23] = system: UO-31; experiment: cells; format: functional; conditions: Homo sapiens, time 48 hrs
# Description: Growth inhibition of human UO-31 cells incubated for 48 hrs by sulforhodamine B assay
# [24] = system: Panel NCI-60 (60 carcinoma cell lines); experiment: cells; format: functional; conditions: Homo sapiens, time 48 hrs; for CC50: read-out: LC50 (the source's name)
# Description: Growth inhibition of human Panel NCI-60 (60 carcinoma cell lines) incubated for 48 hrs by sulforhodamine B assay
# [25] = system: SNB-75; experiment: cells; format: functional; conditions: Homo sapiens, time 48 hrs
# Description: Growth inhibition of human SNB-75 cells incubated for 48 hrs by sulforhodamine B assay
# [26] = system: HCT-15; experiment: cells; format: functional; conditions: Homo sapiens, time 48 hrs
# Description: Growth inhibition of human HCT-15 cells incubated for 48 hrs by sulforhodamine B assay
# [27] = system: UACC-62; experiment: cells; format: functional; conditions: Homo sapiens, time 48 hrs
# Description: Growth inhibition of human UACC-62 cells incubated for 48 hrs by sulforhodamine B assay
# [28] = system: MDA-MB-468; experiment: cells; format: functional; conditions: Homo sapiens, time 48 hrs
# Description: Growth inhibition of human MDA-MB-468 cells incubated for 48 hrs by sulforhodamine B assay
# [29] = system: HOP-92; experiment: cells; format: functional; conditions: Homo sapiens, time 48 hrs
# Description: Growth inhibition of human HOP-92 cells incubated for 48 hrs by sulforhodamine B assay
# [30] = system: SF-295; experiment: cells; format: functional; conditions: Homo sapiens, time 48 hrs
# Description: Growth inhibition of human SF-295 cells incubated for 48 hrs by sulforhodamine B assay
# [31] = system: HT-29; experiment: cells; format: functional; conditions: Homo sapiens, time 48 hrs
# Description: Growth inhibition of human HT-29 cells incubated for 48 hrs by sulforhodamine B assay
# [32] = system: NCI-H226; experiment: cells; format: functional; conditions: Homo sapiens, time 48 hrs
# Description: Growth inhibition of human NCI-H226 cells incubated for 48 hrs by sulforhodamine B assay
# [33] = system: OVCAR-4; experiment: cells; format: functional; conditions: Homo sapiens, time 48 hrs
# Description: Growth inhibition of human OVCAR-4 cells incubated for 48 hrs by sulforhodamine B assay
# [34] = system: MDA-MB-231; experiment: cells; format: functional; conditions: Homo sapiens, time 48 hrs
# Description: Growth inhibition of human MDA-MB-231/ATCC cells incubated for 48 hrs by sulforhodamine B assay
# [35] = system: Panel renal (Carcinoma cell lines); experiment: cells; format: functional; conditions: Homo sapiens, time 48 hrs
# Description: Growth inhibition of human Panel renal (Carcinoma cell lines) incubated for 48 hrs by sulforhodamine B assay
# [36] = system: U-251; experiment: cells; format: functional; conditions: Homo sapiens, time 48 hrs
# Description: Growth inhibition of human U-251 cells incubated for 48 hrs by sulforhodamine B assay
# [37] = system: LOX IMVI; experiment: cells; format: functional; conditions: Homo sapiens, time 48 hrs
# Description: Growth inhibition of human LOX IMVI cells incubated for 48 hrs by sulforhodamine B assay
# [38] = system: SK-MEL-28; experiment: cells; format: functional; conditions: Homo sapiens, time 48 hrs
# Description: Growth inhibition of human SK-MEL-28 cells incubated for 48 hrs by sulforhodamine B assay
# [39] = system: TK-10; experiment: cells; format: functional; conditions: Homo sapiens, time 48 hrs
# Description: Growth inhibition of human TK-10 cells incubated for 48 hrs by sulforhodamine B assay
# [40] = system: Panel colon (Carcinoma cell lines); experiment: cells; format: functional; conditions: Homo sapiens, time 48 hrs; for CC50: read-out: LC50 (the source's name)
# Description: Growth inhibition of human Panel colon (Carcinoma cell lines) incubated for 48 hrs by sulforhodamine B assay
# [41] = system: MCF7; experiment: cells; format: functional; conditions: Homo sapiens, time 48 hrs
# Description: Growth inhibition of human MCF7 cells incubated for 48 hrs by sulforhodamine B assay
# [42] = system: HCT-116; experiment: cells; format: functional; conditions: Homo sapiens, time 48 hrs
# Description: Growth inhibition of human HCT-116 cells incubated for 48 hrs by sulforhodamine B assay
# [43] = system: A498; experiment: cells; format: functional; conditions: Homo sapiens, time 48 hrs
# Description: Growth inhibition of human A498 cells incubated for 48 hrs by sulforhodamine B assay
# [44] = system: IGROV-1; experiment: cells; format: functional; conditions: Homo sapiens, time 48 hrs
# Description: Growth inhibition of human IGROV-1 cells incubated for 48 hrs by sulforhodamine B assay
# [45] = system: UACC-257; experiment: cells; format: functional; conditions: Homo sapiens, time 48 hrs
# Description: Growth inhibition of human UACC-257 cells incubated for 48 hrs by sulforhodamine B assay
# [46] = Cytotoxicity against human HFF-1 cells assessed as cell growth inhibition at 1 uM by MTT assay relative to control; format: cell-based; conditions: read-out: GI
# [47] = Cytotoxicity against human HFF-1 cells assessed as cell growth inhibition at 10 uM by MTT assay relative to control; format: cell-based; conditions: read-out: GI
# [48] = system: A549; experiment: cells; format: functional; conditions: Homo sapiens, time 48 hrs
# Description: Growth inhibition of human A549/ATCC cells incubated for 48 hrs by sulforhodamine B assay
# [49] = Cytotoxicity against human HFF-1 cells assessed as cell growth inhibition by MTT assay; format: cell-based
# [50] = system: SK-MEL-28; experiment: Growth inhibition of human SK-MEL-28 cells assessed as growth percentage at 10 uM measured after 48 hrs by sulforhodamine B assay relative to control; format: functional; conditions: read-out: Activity
# [51] = Cytotoxicity against human HFF-1 cells assessed as cell growth inhibition at 0.1 uM by MTT assay relative to control; format: cell-based; conditions: read-out: GI
# [52] = system: NCI-H522; experiment: cells; format: functional; conditions: Homo sapiens, time 48 hrs
# Description: Growth inhibition of human NCI-H522 cells incubated for 48 hrs by sulforhodamine B assay
# [53] = system: SK-MEL-5; experiment: Growth inhibition of human SK-MEL-5 cells assessed as growth percentage at 10 uM measured after 48 hrs by sulforhodamine B assay relative to control; format: functional; conditions: read-out: Activity
smiles,measurement,setting,value
Fc1ccc(Nc2ccc3c(OCCCN4CCOCC4)cccc3n2)cc1F,growth at 10 µM,[1],66.5%
FC(F)(F)c1cc(Nc2ccc3c(OCCCN4CCOCC4)cccc3n2)ccc1Cl,GI50,[2],1630 nM
same,GI50,[3],2520 nM
same,GI50,[4],2070 nM
same,GI50,[5],1960 nM
same,GI50,[6],2140 nM
same,GI50,[7],4330 nM
same,GI50,[8],2260 nM
same,GI50,[9],1780 nM
same,GI50,[10],3010 nM
same,GI50,[11],2970 nM
same,GI50,[12],2210 nM
same,GI50,[13],2320 nM
same,GI50,[14],2020 nM
same,GI50,[15],1870 nM
same,GI50,[16],2520 nM
same,GI50,[17],2000 nM
same,GI50,[18],2750 nM
same,GI50,[19],1950 nM
same,GI50,[20],1930 nM
same,growth at 10 µM,[21],37.8%
same,GI50,[22],2140 nM
same,GI50,[23],1630 nM
same,GI50,[24],2190 nM
same,GI50,[25],1890 nM
same,GI50,[26],1640 nM
same,GI50,[27],2050 nM
same,GI50,[28],2170 nM
same,GI50,[29],1240 nM
same,GI50,[30],1890 nM
same,GI50,[31],1740 nM
same,GI50,[32],3540 nM
same,GI50,[33],3070 nM
same,GI50,[34],1820 nM
same,GI50,[35],2510 nM
same,GI50,[36],1800 nM
same,GI50,[37],1730 nM
same,GI50,[38],1850 nM
same,GI50,[39],3490 nM
same,GI50,[40],1850 nM
same,GI50,[41],1660 nM
same,GI50,[42],2070 nM
same,GI50,[43],3120 nM
same,GI50,[44],3960 nM
CN1CCN(CCCOc2cccc3nc(Nc4cccc(Cl)c4)ccc23)CC1,GI50,[2],1680 nM
same,GI50,[3],2670 nM
same,GI50,[45],1810 nM
same,inhibition at 1 µM,[46],12.2%
same,GI50,[4],1780 nM
same,GI50,[5],1890 nM
same,TGI,[5],4000 nM
same,CC50,[5],23300 nM
same,GI50,[6],1790 nM
same,GI50,[7],1900 nM
same,GI50,[8],1810 nM
same,GI50,[9],1850 nM
same,GI50,[10],2010 nM
same,LC50,[10],11500 nM
same,TGI,[10],4310 nM
same,GI50,[11],1830 nM
same,GI50,[12],1850 nM
same,TGI,[12],6690 nM
same,CC50,[12],20800 nM
same,inhibition at 10 µM,[47],22.4%
same,GI50,[13],3730 nM
same,LC50 (50% lethal concentration),[13],23900 nM
same,TGI,[13],8650 nM
same,GI50,[48],2020 nM
same,GI50,[14],1450 nM
same,GI50,[15],1720 nM
same,GI50,[16],1900 nM
same,LC50 (concentration killing 50% of cells),[16],7020 nM
same,TGI,[16],3650 nM
same,GI50,[17],2270 nM
same,GI50,[18],1870 nM
same,GI50,[19],1760 nM
same,LC50,[19],6450 nM
same,TGI,[19],3370 nM
same,GI50,[20],1990 nM
same,LC50 (50% lethal concentration),[20],38000 nM
same,TGI,[20],4650 nM
same,GI50,[22],2200 nM
same,GI50,[23],1840 nM
same,GI50,[24],1910 nM
same,TGI,[24],4170 nM
same,CC50,[24],10700 nM
same,GI50,[25],1380 nM
same,GI50,[26],1580 nM
same,GI50,[27],1910 nM
same,GI50,[28],1610 nM
same,GI50,[29],1650 nM
same,GI50,[30],1910 nM
same,GI50,[49],> 10000 nM
same,GI50,[31],1500 nM
same,GI50,[32],1620 nM
same,GI50,[33],1940 nM
same,GI50,[35],1900 nM
same,LC50 (lethal concentration 50%),[35],17400 nM
same,TGI,[35],5370 nM
same,GI50,[36],1890 nM
same,GI50,[37],1680 nM
same,GI50,[38],1650 nM
same,GI50,[39],1670 nM
same,growth at 10 µM,[50],35.5%
same,GI50,[40],1640 nM
same,TGI,[40],3100 nM
same,CC50,[40],5870 nM
same,GI50,[41],1570 nM
same,GI50,[42],1550 nM
same,inhibition at 0.1 µM,[51],5.4%
same,GI50,[43],1880 nM
same,GI50,[44],2230 nM
same,GI50,[52],1480 nM
CN1CCN(CCCOc2cccc3nc(Nc4ccc(F)c(F)c4)ccc23)CC1,GI50,[2],2420 nM
same,GI50,[3],3930 nM
same,GI50,[45],660 nM
same,GI50,[4],2350 nM
same,GI50,[5],4100 nM
same,TGI,[5],9090 nM
same,CC50,[5],16100 nM
same,GI50,[6],660 nM
same,GI50,[7],5130 nM
same,GI50,[8],3830 nM
same,GI50,[9],2110 nM
same,GI50,[10],5130 nM
same,LC50,[10],20500 nM
same,TGI,[10],10800 nM
same,GI50,[11],4730 nM
same,GI50,[12],3140 nM
same,TGI,[12],7980 nM
same,CC50,[12],20300 nM
same,GI50,[13],3170 nM
same,LC50 (50% lethal concentration),[13],18900 nM
same,TGI,[13],7790 nM
same,GI50,[48],3500 nM
same,GI50,[14],4580 nM
same,growth at 10 µM,[53],-26.8%
same,GI50,[15],1250 nM
same,GI50,[16],4070 nM
same,LC50 (concentration killing 50% of cells),[16],18000 nM
same,TGI,[16],8550 nM
same,GI50,[17],4670 nM
same,GI50,[18],2370 nM
same,GI50,[19],1690 nM
same,LC50,[19],10500 nM
same,TGI,[19],4400 nM
same,GI50,[20],2600 nM
same,LC50 (50% lethal concentration),[20],21100 nM
same,TGI,[20],7090 nM
same,GI50,[22],870 nM
same,GI50,[23],4340 nM
same,GI50,[24],2630 nM
same,TGI,[24],6760 nM
same,CC50,[24],16200 nM
same,GI50,[25],3920 nM
same,GI50,[26],960 nM
same,GI50,[27],700 nM
same,GI50,[28],2110 nM
same,GI50,[29],1430 nM
same,GI50,[30],4640 nM
same,GI50,[31],620 nM
same,GI50,[32],5510 nM
same,GI50,[33],6420 nM
same,GI50,[34],937 nM
same,GI50,[35],4160 nM
same,LC50 (lethal concentration 50%),[35],18900 nM
same,TGI,[35],8980 nM
same,GI50,[36],2680 nM
same,GI50,[37],1030 nM
same,GI50,[38],1080 nM
same,GI50,[39],2630 nM
same,GI50,[40],2110 nM
same,TGI,[40],5900 nM
same,CC50,[40],12200 nM
same,GI50,[41],3330 nM
same,GI50,[42],3800 nM
same,GI50,[43],5660 nM
same,GI50,[44],5550 nM
same,GI50,[52],1010 nM
